Results: US5152784A, “Prosthetic devices coated with a polypeptide with type IV collagen activity” (Regents of the University of Minnesota, priority 1991, dated 1992)
“Also recorded” adds a separate entry of the source.

Columns and labels:
peptide Hep-III = target: T1, peptide Hep-III (Homo sapiens, UniProt P02462); assay: Competition of 3H-heparin binding to coated peptide Hep-III by glycosaminoglycans; conditions: Hep-III coated from 500 μg/ml; 3H-heparin 50,000 cpm per well; unlabeled glycosaminoglycan in increasing amounts
T1 construct: residues 531-543 from the amino-terminus of the α1 chain of type IV collagen; The single letter amino acid code for this polypeptide is GEFYFDLRLKGDK; made in house; host or cells: chemical solid-phase (Merrifield) peptide synthesis
Protocol: To check the specificity of the interaction between heparin and peptide Hep-III or whether the heparin structure was also critical to this interaction, heparin along with other sulfated glucosaminoglycans, dextran and chondroitin sulfate were used in competition experiments. A standard amount of […] of a solution containing 500 μg/ml of peptide Hep-III was coated on 96-well plates as described above. Wells were treated for two hours with 2 mg/ml BSA in wash buffer. Then, a final volume of 50 μl was added to each well, containing a standard amount of ^3 H-heparin (50,000 cpm per well) and various amounts of non-radioactive heparin, dextran or chondroitin sulfate. After incubating for two hours at 37° C., the wells were washed and radioactivity was counted as described above in Example 1.

[1] = Heparin binding to plastic plates coated with peptide
Protocol: The ability of the synthesized peptide Hep-III to interact with heparin when coated on 96-well plastic plates was evaluated. Stock solutions of peptide Hep-III at a concentration of 500 μg/ml were prepared in phosphate-buffered saline containing 0.02% sodium azide. Fifty μl from each concentration was coated on the 96-well plates and left to dry overnight at 28° C. Then, wells were treated for two hours with […] of 2 mg/ml BSA and 6 mM phosphate, 10 mM NaCl, 68 μM CaCl2, pH 6.8 (wash buffer) in order to minimize non-specific binding. Next 50 μl of ^3 H-heparin (10 μg/ml) was added at increasing concentrations (0 to 1400 ng/well) for two hours at 37° C. The wells were then washed three times with wash buffer containing 0.05% Triton X-100 and finally they were incubated for thirty minutes at 60° C. with 200 μl of 0.5N NaOH and 1% SDS. The amount of ^3 H-heparin bound at each concentration was quantitated with a Beckman LS-3801 liquid scintillation counter. […] Comparison with data obtained using exactly the same methodology indicate that peptide Hep-III is at least 10 times stronger than peptide Hep-I (TS-2 in U.S. Pat. No. 4,876,332) (see FIG. 5B) and about 100 times stronger than type IV collagen, when used in the same coating concentrations.

[2] = tested on: Bovine aortic endothelial cells; assay: Direct adhesion of endothelial cells to peptide-coated plastic; format: cell-based; conditions: coated at increasing concentrations; 120 min, 37° C.
Protocol: Bovine aortic endothelial cells were isolated according to the following protocol. Aortas were obtained from a local slaughterhouse, washed in cold phosphate buffered saline (PBS) (136 mM NaCl, 2.6 mM KCl, 15.2 mM Na2 HPO4, pH 7.2) and processed within 2 hours. Crude collagenase (CLS III, 125-145 units per mg dry weight, Cooper Biomedical) was used at 2 mg/ml in Dulbecco's modified Eagle's medium (DMEM) (GIBCO). The vessel was clamped at the distal end, filled with the collagenase-PBS solution and digestion was carried out for 10 minutes. The lumenal contents were harvested, followed by the addition of fresh collagenase for two additional 10-minute periods. The enzyme-cell suspensions were added to an equal volume of DMEM containing 10% fetal bovine serum (FBS) to inhibit the enzyme and spun in a centrifuge at 400×g for 10 minutes. The resulting cell pellet was resuspended in DMEM containing 10% FBS, 100 units/ml of penicillin G, 100 μg/ml of streptomycin and 100 μg/ml of crude fibroblast growth factor. Cells are in 75 cm^2 flasks in a humidified 5% CO2 atmosphere at 37° C. Cultures were fed twice a week with the same medium and cells were used in assays when approximately 75% confluent. The cells were labeled for 24 hours prior to use with a mixture of ^35 S-labeled amino acids (3 mCi). […]

melanoma cells [3] = assay: Inhibition of 125I-Hep-III binding to melanoma cell surface by excess unlabeled peptide; design: species or system murine; conditions: unlabeled peptide up to 500-fold excess; 15 min, 4° C.
Protocol: (§1) Melanoma and endothelial cells were grown in culture as discussed in Examples 4, 5, 6, and 7A (supra). On the day of the experiment, the cells were harvested by trypsinization (supra) and were co-incubated with 50 μl of peptide Hep-III. 50 μl a constant amount of ^125 I-labeled peptide Hep-III was mixed with increasing concentrations of unlabeled peptide Hep-III or a control peptide (maximal excess of unlabeled peptide: 500-fold over radiolabeled Hep-III). 50 μl of each concentration of unlabeled peptide which was mixed with radiolabeled Hep-III were then added to cells in suspension (5,000 cells per concentration of peptide). The cells were incubated with the mixture of unlabeled-radiolabeled peptide for 15 min. at 4° C. and they were then pelleted. The cells were subsequently washed and bound radioactivity was quantitated as described in Example 7A. […] These experiments provide confirmation that a specific interaction occurs between melanoma and endothelial-cell surfaces and peptide Hep-III.

melanoma cells [4] = assay: Direct binding of 125I-labeled peptide Hep-III to melanoma cell surface; design: species or system murine; conditions: about 5,000 cells; 15 min, 4° C.; increasing peptide concentrations
Protocol: (§2) Endothelial and melanoma cells were grown in culture as described in Examples 4, 5, and 6 (supra). Cells used for this type of experiment were not labeled with radioactivity. Unlabeled cells were harvested by trypsinization (supra) on the day of the experiment. About 5,000 cells were mixed with 50 μl of a given concentration of peptide Hep-III in solution. Increasing concentrations of peptide Hep-III were used. The cells were incubated with the iodinated peptide for 15 min. at 4° C. and they were then pelleted by centrifugation. The cells were then resuspended and washed 3 times with DMEM containing 2 mg/ml BSA and 50 mM Hepes. Following the washes, the cells were pelleted for a final time in plastic tubes, the supernatant was decanted and the radioactivity of the pellet was quantitated in a Beckman scintillation counter. The binding of peptide Hep-III to endothelial cells is saturable (FIG. 10B)--an indication of specificity. […] These experiments indicate that peptide Hep-III specificity interacts with the surfaces of both endothelial cells and melanoma.

endothelial cells [5] = assay: Inhibition of 125I-Hep-III binding to endothelial cell surface by excess unlabeled peptide; design: species or system bovine; conditions: unlabeled peptide up to 500-fold excess; 15 min, 4° C.
Protocol: as §1

K-1735-M4 melanoma cells = assay: Adhesion of melanoma cells to peptide-coated wells; format: cell-based, murine; conditions: 120 minutes, 37° C.
From the text: Highly metastatic murmine melanoma cells, K-1735-M4 were originally provided by Dr. I. J. Fidler of Anderson Hospital, University of Texas Health Sciences Center, Houston, Tex. When the cells were received, a large number of early passage cells were propagated and frozen in liquid nitrogen. The tumor cells are usually cultured in vitro for no longer than six weeks. Following this period, the cells are discarded and new cells withdrawn from storage for use in further in vitro or in vivo experiments. This precaution is taken to minimize phenotypic drift that can occur as a result of continuous in vitro passage. The cells were cultured in Dulbecco's Modified Eagle's Medium containing 5% heat inactivated fetal calf serum. The cultures were grown in 37° C. incubators with a humidified atmosphere containing 5% CO2. Cells were subcultured twice weekly by releasing cells gently from the flask, using 0.05% trypsin and 1 mM EDTA.
Cultures of cells which were 60-80% confluent were metabolically labeled for 24 hours with the addition of 3 mCi/ml of ^3 H-td (tritiated thymidine). On the day of the assay, the cells were harvested by trypsinization, the trypsin was inhibited by the addition of serum, and the cells were washed free of this mixture and resuspended in DMEM buffered with HEPES at pH 7.2. […] The solubilized cells were then quantitated using a liquid scintillation counter. […]

type IV collagen = target: T2, type IV collagen (Homo sapiens, UniProt P02462+P08572); assay: Inhibition of 3H-heparin binding to type IV collagen coated on plastic by peptide in solution; conditions: peptide in solution 0.5 mg/ml to 5 μg/ml; 3H-heparin 500 ng per well; type IV collagen coated at 60 μg/ml
T2 construct: intact, native type IV collagen coated on plastic
Protocol: Peptide Hep-III in solution (and not absorbed to plastic), was screened for the ability to inhibit the binding of heparin to intact, native type IV collagen coated on plastic. This experimental approach avoids problems due to differential coating of peptides in heparin binding assays. Type IV collagen at 60 μg/ml in PBS was coated on 96-well plates, using 50 μl per well and dried overnight at 28° C. The wells were then treated for two hours with 2 mg/ml BSA in wash buffer (described above in Example 1). Peptide Hep-III at various dilutions ranging from 0.5 mg/ml to 5 μg/ml in PBS and CHAPS (cholamido-propyl-dimethyl-ammoniopropane-sulfonate) (a detergent used to avoid non-specific sticking) was co-incubated with a standard amount of ^3 H-heparin (500 ng per well […]) for two hours at 37° C. and the mixture was then transferred to the collagen coated plate (50 μl) and allowed to incubate for another two hours at 37° C. The wells were then washed and radioactivity was counted as described above.

endothelial cells [6] = assay: Direct binding of 125I-labeled peptide Hep-III to endothelial cell surface; design: species or system bovine; conditions: about 5,000 cells; 15 min, 4° C.; increasing peptide concentrations
Protocol: as §2

melanoma cell line (M4) = assay: Inhibition of melanoma cell adhesion to type IV collagen-coated wells by peptide in solution; format: cell-based, murine; conditions: cells coincubated 20 min with peptide in solution, then 20 min on collagen-coated wells
Protocol: Cells were grown, labeled and harvested as described in Example 4, but after detachment and washing they were coincubated for 20 min. in the presence of various concentrations of peptide Hep-III in solution. They were then applied for another 20 min. on type IV collagen-coated plastic wells. At the end of the incubation the same treatment described in Example 4 was used.

[7] = same methodology, same coating concentrations

T2 sequence (P02462 173-1669): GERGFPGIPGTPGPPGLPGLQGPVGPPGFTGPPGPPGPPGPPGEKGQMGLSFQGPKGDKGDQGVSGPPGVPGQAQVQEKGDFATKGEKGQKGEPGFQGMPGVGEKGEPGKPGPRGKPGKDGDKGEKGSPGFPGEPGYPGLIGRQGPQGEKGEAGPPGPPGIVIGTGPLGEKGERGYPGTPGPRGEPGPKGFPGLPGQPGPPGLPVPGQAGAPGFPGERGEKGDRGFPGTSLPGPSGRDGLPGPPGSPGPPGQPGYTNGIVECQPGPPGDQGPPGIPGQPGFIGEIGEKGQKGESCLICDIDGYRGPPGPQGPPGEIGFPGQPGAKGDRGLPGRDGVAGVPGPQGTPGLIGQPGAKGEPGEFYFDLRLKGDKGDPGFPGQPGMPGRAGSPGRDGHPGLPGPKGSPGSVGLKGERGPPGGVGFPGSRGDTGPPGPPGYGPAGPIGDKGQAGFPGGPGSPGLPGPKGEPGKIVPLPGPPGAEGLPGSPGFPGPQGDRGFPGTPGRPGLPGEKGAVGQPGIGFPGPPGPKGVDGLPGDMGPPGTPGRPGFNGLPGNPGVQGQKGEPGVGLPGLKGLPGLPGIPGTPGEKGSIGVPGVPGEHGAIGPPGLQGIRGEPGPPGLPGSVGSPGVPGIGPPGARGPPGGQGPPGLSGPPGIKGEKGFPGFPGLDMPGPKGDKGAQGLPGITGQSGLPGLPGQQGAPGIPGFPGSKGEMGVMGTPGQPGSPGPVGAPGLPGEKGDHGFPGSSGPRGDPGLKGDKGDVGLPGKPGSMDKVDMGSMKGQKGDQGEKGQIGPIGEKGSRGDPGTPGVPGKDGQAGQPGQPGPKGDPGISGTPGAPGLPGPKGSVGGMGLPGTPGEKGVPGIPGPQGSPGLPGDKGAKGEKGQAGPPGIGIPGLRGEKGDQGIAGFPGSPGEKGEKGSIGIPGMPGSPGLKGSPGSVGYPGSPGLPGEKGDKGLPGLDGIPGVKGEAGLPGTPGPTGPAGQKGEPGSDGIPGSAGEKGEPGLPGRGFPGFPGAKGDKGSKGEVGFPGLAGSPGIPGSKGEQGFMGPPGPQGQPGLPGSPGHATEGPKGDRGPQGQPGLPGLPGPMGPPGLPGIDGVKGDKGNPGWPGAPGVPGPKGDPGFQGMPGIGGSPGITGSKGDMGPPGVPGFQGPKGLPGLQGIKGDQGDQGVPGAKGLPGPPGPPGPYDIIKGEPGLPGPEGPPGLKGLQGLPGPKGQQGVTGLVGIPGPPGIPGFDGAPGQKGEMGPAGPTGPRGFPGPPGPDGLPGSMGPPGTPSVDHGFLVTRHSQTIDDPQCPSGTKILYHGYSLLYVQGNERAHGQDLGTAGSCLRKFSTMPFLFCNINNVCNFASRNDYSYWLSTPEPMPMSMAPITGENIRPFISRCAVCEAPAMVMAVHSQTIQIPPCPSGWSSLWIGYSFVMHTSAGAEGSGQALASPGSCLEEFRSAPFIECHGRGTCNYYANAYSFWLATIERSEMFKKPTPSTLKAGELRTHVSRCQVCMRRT
T2 sequence (P08572 184-1712): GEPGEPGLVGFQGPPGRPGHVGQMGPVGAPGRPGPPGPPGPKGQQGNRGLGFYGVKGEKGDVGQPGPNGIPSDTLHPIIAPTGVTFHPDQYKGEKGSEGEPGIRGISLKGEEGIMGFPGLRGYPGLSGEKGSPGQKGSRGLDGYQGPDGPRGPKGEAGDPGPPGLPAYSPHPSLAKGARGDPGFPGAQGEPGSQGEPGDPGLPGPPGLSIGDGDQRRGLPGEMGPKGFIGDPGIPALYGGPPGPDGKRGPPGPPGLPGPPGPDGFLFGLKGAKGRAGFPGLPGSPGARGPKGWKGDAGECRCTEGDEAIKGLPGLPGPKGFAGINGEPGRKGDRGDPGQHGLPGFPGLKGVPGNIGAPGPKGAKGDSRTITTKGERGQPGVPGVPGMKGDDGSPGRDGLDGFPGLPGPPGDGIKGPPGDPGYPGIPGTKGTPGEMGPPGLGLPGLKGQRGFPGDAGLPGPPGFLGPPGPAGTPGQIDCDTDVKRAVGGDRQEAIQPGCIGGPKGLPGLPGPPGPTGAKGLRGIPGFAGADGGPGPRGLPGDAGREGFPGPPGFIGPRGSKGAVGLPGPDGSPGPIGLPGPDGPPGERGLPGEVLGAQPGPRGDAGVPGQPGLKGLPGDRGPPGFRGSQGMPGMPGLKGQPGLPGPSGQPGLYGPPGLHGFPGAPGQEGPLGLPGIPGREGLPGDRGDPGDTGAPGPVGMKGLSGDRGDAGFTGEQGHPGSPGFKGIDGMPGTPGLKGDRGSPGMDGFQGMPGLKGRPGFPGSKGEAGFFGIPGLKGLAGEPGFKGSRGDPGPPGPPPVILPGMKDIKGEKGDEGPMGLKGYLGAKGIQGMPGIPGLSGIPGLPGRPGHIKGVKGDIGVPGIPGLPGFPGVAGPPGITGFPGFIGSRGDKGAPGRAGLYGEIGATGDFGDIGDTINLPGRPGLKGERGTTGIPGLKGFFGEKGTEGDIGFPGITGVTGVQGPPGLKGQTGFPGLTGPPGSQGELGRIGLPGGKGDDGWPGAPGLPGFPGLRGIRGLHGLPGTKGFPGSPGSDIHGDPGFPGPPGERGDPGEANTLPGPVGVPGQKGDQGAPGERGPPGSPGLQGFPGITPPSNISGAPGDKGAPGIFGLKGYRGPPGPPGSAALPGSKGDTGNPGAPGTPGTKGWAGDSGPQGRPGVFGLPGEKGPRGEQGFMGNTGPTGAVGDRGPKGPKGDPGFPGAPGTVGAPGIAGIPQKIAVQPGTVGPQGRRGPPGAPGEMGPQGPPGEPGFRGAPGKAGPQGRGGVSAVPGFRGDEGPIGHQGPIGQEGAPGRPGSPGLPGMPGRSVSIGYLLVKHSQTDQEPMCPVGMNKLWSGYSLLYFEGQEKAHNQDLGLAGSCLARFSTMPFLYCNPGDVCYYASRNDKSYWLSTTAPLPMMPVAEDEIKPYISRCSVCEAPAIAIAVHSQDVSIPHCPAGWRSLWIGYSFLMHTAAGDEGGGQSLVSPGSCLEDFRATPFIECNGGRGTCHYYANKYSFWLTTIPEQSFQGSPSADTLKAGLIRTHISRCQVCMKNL

Question: For dextran, which “competition for the binding of tritiated heparin to peptide Hep-III” value (from here on “competition for the binding”) (peptide Hep-III) is on record?
Answer: substantially more dextran is needed to achieve similar levels of competition

Question: With chondroitin sulfate as the substance, how does the “competition for the binding” value (peptide Hep-III) read?
Answer: cannot mimic this effect except at extremely high concentrations

Question: With heparin as the substance, how does the “competition for the binding” value (peptide Hep-III) read?
Answer: able to compete for the binding of tritiated heparin to peptide Hep-III at very low concentrations

Question: For “gly-glu-phe-tyr-phe-asp-leu-arg-leu-lys-gly-asp-lys (GEFYFDLRLKGDK) [Hep-III, …; type IV collagen residues 531-543 from the amino-terminus of the α1 chain]”, which “binding of 3H-heparin to coated peptide” value ([1]; peptide coated on 96-well plastic plates, 3H-heparin 0 to 1400 ng/well, 2 h, 37° C.) is on record?
Answer: extremely potent promoter of heparin-binding to synthetic substrates; also recorded: strong binding to heparin; also recorded: very potent binder of heparin

Question: And the “heparin binding strength relative to peptide Hep-I (TS-2)” value [1, 7]?
Answer: at least 10 times

Question: What about the “heparin binding strength relative to type IV collagen” value [1, 7] of the same substance?
Answer: about 100 times

Question: What about the “endothelial cell adhesion to coated substrate (in words)” value [2] of the same substance?
Answer: promotes substantial adhesion of endothelial cells even at very low plating concentrations

Question: What about the “competition of radiolabeled Hep-III binding to melanoma cells by unlabeled peptide” value (melanoma cells [3]) of the same substance?
Answer: can be competed only by an excess of unlabeled peptide Hep-III

Question: And the “binding of 125I-labeled peptide to melanoma cell surface” value (melanoma cells [4])?
Answer: with a tendency for saturation at the higher concentrations used

Question: And the “competition of radiolabeled Hep-III binding to endothelial cells by unlabeled peptide” value (endothelial cells [5])?
Answer: could efficiently compete

Question: What about the “maximal melanoma cell adhesion” value (K-1735-M4 melanoma cells; peptide coated at increasing concentrations) of the same substance?
Answer: 70,000 dpm

Question: What about the melanoma cell adhesion (K-1735-M4 melanoma cells; peptide concentration 0.5 μg/well) of the same substance?
Answer: 80 % of input

Question: What about the “inhibition of heparin binding to type IV collagen” value (type IV collagen) of the same substance?
Answer: strong inhibitor of heparin binding to type IV collagen

Question: What about the “binding of 125I-labeled peptide to endothelial cell surface” value (endothelial cells [6]) of the same substance?
Answer: saturable

Question: And the “decrease of melanoma cell binding to type IV collagen-coated substrata” value (melanoma cell line (M4))?
Answer: dramatically decrease the binding of melanoma cells
